The source of these data is article PMC9293227 (Clinical Pharmacology in Drug Development, 2021).

In general, AUC(0-inf) refers to total exposure, with the tail of the curve extrapolated. Low readings indicate less exposure, high ones more exposure. A word on the AUC(0-t): it is exposure summed from dosing to a finite time, without extrapolation to infinity. As a reminder, the half-life is how long it takes for the measured level to halve. A word on the Cmax: it is the highest concentration seen after dosing.

SMILES strings stand for the structures. Like-named read-outs stand apart in the source and are kept apart here. A value given as a limit tells only on which side of the number the result lay.

For data set [1] the following is noted: for increase in Cmax with filgotinib coadministration relative to statin alone: pravastatin 40 mg / rosuvastatin 10 mg, filgotinib 200 mg once daily; for AUCinf (molar ratio of 2‐hydroxy‐atorvastatin to atorvastatin) / Cmax (molar ratio of 2‐hydroxy‐atorvastatin to atorvastatin): mean (%CV).
The conditions of data set [2]: clinical trials and postmarketing surveillance; cited from earlier work.
A short description of the next data set: Safety assessment. Particulars: by treatment arm. Format: in vivo, human (healthy adult participants).
For data set [3] the following is noted: no reference given, cited from earlier work.
For data set [4] the following is noted: cited from earlier work.
Data set [5] has as its system cytochrome P450 enzymes or uridine 5’‐diphospho‐glucuronosyltransferases. Particulars: in vitro; cited from earlier work.
Another data set has as its system JAK1. Particulars: human whole blood assay; cited from earlier work.
[6] abbreviates: both, human, plasma, oral, 40 mg.
Where [7] appears, read: both, human, plasma, oral, 10 mg.
Setting [8] is: rosuvastatin + filgotinib vs rosuvastatin alone.
Where [9] appears, read: 2-hydroxy-atorvastatin after atorvastatin 40 mg alone, n = 25, median (Q1-Q3).
[10] abbreviates: 2-hydroxy-atorvastatin, atorvastatin + filgotinib vs atorvastatin alone.
[11] abbreviates: atorvastatin 40 mg + filgotinib 200 mg once daily, n = 26.
The mark [12] stands for this setting: atorvastatin 40 mg alone, n = 25.
[13] abbreviates: atorvastatin + filgotinib vs atorvastatin alone.

With `CC[C@H](C)C(=O)O[C@H]1C[C@H](O)C=C2C=C[C@H](C)[C@H](CC[C@@H](O)C[C@@H](O)CC(=O)O)[C@H]21` [Pravastatin], in data set [1] (setting [6]), the AUC(0-inf) was found to be 201 ng·h/mL, the AUC(0-t) amounted to 200 ng·h/mL and the tmax came to 1 h. Also, the half-life in data set [1] (both, human, plasma, oral, t1/2, pravastatin 40 mg (cocktail) + filgotinib 200 mg once daily, n = 26, mean (standard deviation)) was 6.57 h. For the same compound, in data set [1] (both, human, plasma, oral, t1/2, pravastatin 40 mg (cocktail) + filgotinib 200 mg once daily, n = 26, median (Q1-Q3)), the half-life was 5.6 h. The “increase in Cmax with filgotinib coadministration relative to statin alone” value in data set [1] was found to be 25%. Besides, the “AUClast GLSM Ratio (90% CI)” value in data set [1] (pravastatin + filgotinib vs pravastatin alone) is listed as 1.22 (1.05‐1.41).

Take `CC(C)c1nc(N(C)S(C)(=O)=O)nc(-c2ccc(F)cc2)c1/C=C/[C@@H](O)C[C@@H](O)CC(=O)O` [Rosuvastatin]: the “myopathy related to rosuvastatin, patients” value in data set [2] is reported as not above 0.03%. Moreover, in data set [1] (setting [7]), the AUC(0-inf) amounted to 66 ng·h/mL and the concentration peaked (Cmax) at 7.5 ng/mL. Further, the half-life in data set [1] (both, human, plasma, oral, t1/2, rosuvastatin 10 mg (cocktail) + filgotinib 200 mg once daily, n = 26, median (Q1-Q3)) is 15.4 h. Also, the “increase in Cmax with filgotinib coadministration relative to statin alone” value in data set [1] is given as 68%. In addition, the tmax in data set [1] (rosuvastatin 10 mg alone (cocktail), n = 25, median (Q1-Q3)) is recorded as 3.0 (2.0‐4.0) h. In data set [1] (setting [8]), the “AUCinf GLSM Ratio (90% CI)” value is listed as 1.42 (1.30‐1.57), the “AUClast GLSM Ratio (90% CI)” value is on record as 1.46 (1.32‐1.62) and the “Cmax GLSM Ratio (90% CI)” value is on record as 1.68 (1.43‐1.97).

Take `CC(C)c1c(C(=O)Nc2ccccc2)c(-c2ccccc2)c(-c2ccc(F)cc2)n1CC[C@@H](O)C[C@@H](O)CC(=O)O` [Atorvastatin]: the “participants with treatment‐emergent AE related to study drug, n (%)” value in the data set “Safety assessment” is on record as 3 (11.5%). For the same compound, the “headache, n [%]” value in the data set “Safety assessment” (all mild or moderate) was 2 [7.7%].

For `CC(C)c1c(C(=O)Nc2ccccc2O)c(-c2ccccc2)c(-c2ccc(F)cc2)n1CCC(O)CC(O)CC(=O)O` (stereo not shown) [2‐Hydroxy‐Atorvastatin, 2‐hydroxy‐atorvastatin], in data set [1] (setting [9]), the t1/2 is given as 9.1 (7.1‐10.9) h and the tmax is listed as 2.0 (1.5‐4.1) h. For the same compound, in data set [1] (setting [10]), the “AUCinf GLSM Ratio (90% CI)” value is given as 1.11 (1.02‐1.22), the “AUClast GLSM Ratio (90% CI)” value is on record as 1.12 (1.02‐1.23) and the “Cmax GLSM Ratio (90% CI)” value is recorded as 0.98 (0.81‐1.19). In addition, in data set [1] (setting [11]), the “AUCinf (molar ratio of 2‐hydroxy‐atorvastatin to atorvastatin)” value is on record as 1.6 (26.3) and the “Cmax (molar ratio of 2‐hydroxy‐atorvastatin to atorvastatin)” value was 0.8 (29.3). Besides, in data set [1] (setting [12]), the “AUCinf (molar ratio of 2‐hydroxy‐atorvastatin to atorvastatin)” value is 1.3 (35.1) and the “Cmax (molar ratio of 2‐hydroxy‐atorvastatin to atorvastatin)” value is 0.7 (43.9). Moreover, in data set [1] (setting [13]), the “AUCinf (molar ratio of 2‐hydroxy‐atorvastatin to atorvastatin) GLSM Ratio (90% CI)” value is 1.22 (1.15‐1.29) and the “Cmax (molar ratio of 2‐hydroxy‐atorvastatin to atorvastatin) GLSM Ratio (90% CI)” value was 1.19 (1.06‐1.33).

As for `O=C(Nc1nc2cccc(-c3ccc(CN4CCS(=O)(=O)CC4)cc3)n2n1)C1CC1` [Filgotinib], the “accumulation in plasma following multiple once-daily dosing of filgotinib” value in data set [3] is reported as “does not accumulate”. Besides, the “effect on QT interval” value in data set [4] was “not affect QT interval”. In addition, in the data set “Safety assessment”, the “participants with treatment‐emergent AE related to study drug, n (%)” value is given as 8 (30.8%). For the same compound, in the data set “Safety assessment” (all mild or moderate), the “headache, n [%]” value is 5 [19.2%] and the “nausea, n [%]” value was 3 [11.5%]. The “interaction with cytochrome P450 enzymes or UGTs” value in data set [5] is recorded as “do not interact”.

As to `Nc1nc2cccc(-c3ccc(CN4CCS(=O)(=O)CC4)cc3)n2n1` [GS‐829845], the “reduced potency relative to filgotinib” value with JAK1 is recorded as “≈ 10 fold”. In data set [3] (multiple once-daily dosing of filgotinib), the “time to achieve steady-state plasma concentrations” value is reported as “≈ 4 days”. Further, in data set [3], the “accumulation in plasma following multiple once-daily dosing of filgotinib” value was “approximately 2 fold”. Further, the “effect on QT interval” value in data set [4] is “not affect QT interval”. Further, the “interaction with cytochrome P450 enzymes or UGTs” value in data set [5] is reported as “do not interact”.
